Test results published in PubChem BioAssay (NCI).
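Cells were grown in 96-well plates and exposed to each compound for 48 hours at five concentrations; endpoints were interpolated linearly between bracketing concentrations, or set to the highest concentration if not reached. The concentration for 50% growth inhibition is given as GI50. TGI marks complete inhibition of growth.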 Where a SMILES comes first, the peptide text is derived from it. Bridges are numbered along the chain shown (N, C = ends). [ ]: non-standard residue; d: D form. The star is where a group is joined. ξ: configuration not given here. ξDab(CH2SO3H) = NC(CCNCS(=O)(=O)O)C(=O)O; Heptanoyl(6-Me) = CC(C)CCCCC(=O)*; Dab = NCC[CH](N)C(=O)O

What was measured:
Assay in all cases: inhibition of tumour cell growth, NCI panel, 48 h
[1] = test system: PC-3 prostate
[2] = test system: NCI-H226 lung
[3] = test system: LOX IMVI melanoma
[4] = test system: UO-31 renal
[5] = test system: RPMI-8226 leukemia
[6] = test system: HCC-2998 colon
[7] = test system: SF-539 CNS
[8] = test system: TK-10 renal
[9] = test system: HT29 colon
[10] = test system: SNB-75 CNS

C[C@]12CC[C@@H]3c4cc(OC(F)F)c(OS(N)(=O)=O)cc4CC[C@H]3[C@@H]1CC[C@@H]2OS(N)(=O)=O
GI50 [1]: 1.41 µM
TGI [1]: 30.6 µM
GI50 [2]: 4.24 µM
TGI [2]: 33.2 µM
GI50 [3]: 1.25 µM
TGI [3]: 19.1 µM
GI50 [4]: 1.42 µM
TGI [4]: 19.4 µM
GI50 [5]: 1.03 µM
TGI [5]: 35.4 µM
GI50 [6]: 3.88 µM
TGI [6]: 17.3 µM
GI50 [7]: 0.781 µM
TGI [7]: 3.84 µM
GI50 [8]: 13.6 µM
TGI [8]: 49.1 µM
GI50 [9]: 2.25 µM
TGI [9]: 22.5 µM
GI50 [10]: 0.463 µM
TGI [10]: 2.15 µM

CCC(C)C1NC(=O)C(CCNCS(=O)(=O)O)NC(=O)C(NC(=O)C(CCNCS(=O)(=O)O)NC(=O)C(NC(=O)C(CCNCS(=O)(=O)O)NC(=O)CCCCC(C)C)C(C)O)CCNC(=O)C(C(C)O)NC(=O)C(CCNCS(=O)(=O)O)NC(=O)C(CCNCS(=O)(=O)O)NC(=O)C(C(C)CC)NC1=O (stereo unspecified) ({Heptanoyl(6-Me)}-[ξDab(CH2SO3H)]T[ξDab(CH2SO3H)][Dab][ξDab(CH2SO3H)]II[ξDab(CH2SO3H)][ξDab(CH2SO3H)]T; lactam 4-C; configuration not given here)
GI50 [1]: 7.97 µM
TGI [1]: > 25 µM
GI50 [2]: 8.25 µM
TGI [2]: > 25 µM
GI50 [3]: 5.21 µM
TGI [3]: > 25 µM
GI50 [4]: > 25 µM
TGI [4]: > 25 µM
GI50 [6]: 5.28 µM
TGI [6]: 14.2 µM
GI50 [7]: 7.16 µM
TGI [7]: > 25 µM
GI50 [8]: > 25 µM
TGI [8]: > 25 µM
GI50 [9]: 7.92 µM
TGI [9]: > 25 µM
GI50 [10]: 1.58 µM
TGI [10]: > 25 µM

COc1ccc2c(c1)oc(=O)c1cc(OC)ccc12
GI50 [1]: > 100 µM
TGI [1]: > 100 µM
GI50 [2]: > 100 µM
TGI [2]: > 100 µM
GI50 [3]: > 100 µM
TGI [3]: > 100 µM
GI50 [4]: 32.9 µM
TGI [4]: > 100 µM
GI50 [5]: > 100 µM
TGI [5]: > 100 µM
GI50 [6]: > 100 µM
TGI [6]: > 100 µM
GI50 [7]: > 100 µM
TGI [7]: > 100 µM
GI50 [8]: > 100 µM
TGI [8]: > 100 µM
GI50 [9]: > 100 µM
TGI [9]: > 100 µM
GI50 [10]: > 100 µM
TGI [10]: > 100 µM

COc1cc2ncnc(Nc3cccc(Cl)c3F)c2cc1OC(=O)N1CCN(C)C[C@H]1C
GI50 [1]: 35.3 µM
TGI [1]: > 93.3 µM
GI50 [2]: > 45.9 µM
TGI [2]: > 75.6 µM
GI50 [3]: > 36.5 µM
TGI [3]: > 53.8 µM
GI50 [4]: 6.89 µM
TGI [4]: > 50.2 µM
GI50 [5]: > 42.6 µM
TGI [5]: > 68.2 µM
GI50 [6]: > 45.4 µM
TGI [6]: > 70 µM
GI50 [7]: > 40.4 µM
TGI [7]: > 58.9 µM
GI50 [8]: 0.18 µM
TGI [8]: 20 µM
GI50 [9]: > 38.4 µM
TGI [9]: > 64.9 µM
GI50 [10]: 10.8 µM
TGI [10]: > 50.1 µM

COc1cccc(/C=N/NC(=O)c2ccccc2N2CCCC2)c1O
GI50 [1]: 6.48 µM
TGI [1]: > 100 µM
GI50 [2]: 1.84 µM
TGI [2]: 9.06 µM
GI50 [3]: 2.54 µM
TGI [3]: > 100 µM
GI50 [4]: 2.28 µM
TGI [4]: > 100 µM
GI50 [5]: 3.74 µM
TGI [5]: > 100 µM
GI50 [6]: 47 µM
TGI [6]: > 100 µM
GI50 [7]: 3.73 µM
TGI [7]: 24.1 µM
GI50 [8]: 5.38 µM
TGI [8]: > 100 µM
GI50 [9]: 30.4 µM
TGI [9]: > 100 µM
GI50 [10]: 16.9 µM
TGI [10]: > 100 µM

COc1ccc(Nc2cc(C)nc(NCc3ccccc3)n2)cc1
GI50 [1]: 3.25 µM
TGI [1]: 19 µM
GI50 [2]: 6.14 µM
TGI [2]: 21.3 µM
GI50 [3]: 2.2 µM
TGI [3]: 6.38 µM
GI50 [4]: 2.77 µM
TGI [4]: 15.9 µM
GI50 [5]: 1.81 µM
TGI [5]: 7.41 µM
GI50 [6]: 2.02 µM
TGI [6]: 4.04 µM
GI50 [7]: 4.24 µM
TGI [7]: 16.7 µM
GI50 [8]: 5.48 µM
TGI [8]: 18.9 µM
GI50 [9]: 2.81 µM
TGI [9]: 12.7 µM
GI50 [10]: 4.65 µM
TGI [10]: 18.8 µM

CC/C(=C(/c1ccc(O)cc1)c1ccc(OCCN)cc1)c1ccccc1
GI50 [1]: 2.66 µM
TGI [1]: 8.26 µM
GI50 [2]: 11.6 µM
TGI [2]: 30.7 µM
GI50 [3]: 1.76 µM
TGI [3]: 3.23 µM
GI50 [4]: 2.72 µM
TGI [4]: 8.57 µM
GI50 [5]: 2.37 µM
TGI [5]: 5.65 µM
GI50 [6]: 1.95 µM
TGI [6]: 3.72 µM
GI50 [7]: 3.73 µM
TGI [7]: 8.01 µM
GI50 [8]: 4.91 µM
TGI [8]: 10.2 µM
GI50 [9]: 2.49 µM
TGI [9]: 5.78 µM
GI50 [10]: 1.86 µM
TGI [10]: 12.1 µM

O=[N+]([O-])c1ccc(C2=Nn3c(nnc3-c3ccc(Cl)cc3)SC2)o1
TGI [1]: 18.4 µM
TGI [2]: 37.8 µM
TGI [3]: 12.2 µM
TGI [4]: 15.4 µM
TGI [5]: 6.37 µM
TGI [6]: 5.72 µM
TGI [7]: 20.5 µM
TGI [8]: 29.7 µM
TGI [9]: 11.1 µM
TGI [10]: 32 µM

C[C@@H]1CCC([C@@H](C)[C@H]2CC[C@H]3[C@@H]4CC[C@H]5C[C@@H](O)CC[C@]5(C)[C@H]4CC[C@]23C)=NC1
TGI [1]: > 100 µM
TGI [2]: > 100 µM
TGI [3]: > 100 µM
TGI [4]: 46.3 µM
TGI [5]: > 20.4 µM
TGI [6]: 55.4 µM
TGI [7]: > 100 µM
TGI [8]: > 100 µM
TGI [9]: > 55.4 µM
TGI [10]: > 71 µM

COc1cc(C(=O)N2CCN(c3ccccc3)CC2)c2ccccc2n1
GI50 [1]: 0.0846 µM
TGI [1]: > 100 µM
GI50 [2]: 12.7 µM
TGI [2]: > 100 µM
GI50 [3]: 0.086 µM
TGI [3]: > 52 µM
GI50 [4]: 0.0875 µM
TGI [4]: > 83.7 µM
GI50 [5]: 0.247 µM
TGI [5]: > 100 µM
GI50 [6]: 0.0696 µM
TGI [6]: 0.486 µM
GI50 [7]: 0.0973 µM
GI50 [8]: 0.287 µM
TGI [8]: > 100 µM
GI50 [9]: 0.041 µM
TGI [9]: 10.3 µM
GI50 [10]: 0.0402 µM

CCOC(=O)Nc1nc2ccc(Br)cc2s1
GI50 [1]: > 50 µM
TGI [1]: > 50 µM
GI50 [2]: > 50 µM
TGI [2]: > 50 µM
GI50 [3]: > 50 µM
TGI [3]: > 50 µM
GI50 [4]: > 50 µM
TGI [4]: > 50 µM
GI50 [5]: > 50 µM
TGI [5]: > 50 µM
GI50 [6]: > 50 µM
TGI [6]: > 50 µM
GI50 [7]: > 50 µM
TGI [7]: > 50 µM
GI50 [8]: > 50 µM
TGI [8]: > 50 µM
GI50 [9]: > 50 µM
TGI [9]: > 50 µM
GI50 [10]: > 50 µM
TGI [10]: > 50 µM

CCc1nc(N)nc(N)c1-c1ccc2nnn(O)c2c1
TGI [1]: > 100 µM
TGI [2]: > 100 µM
TGI [3]: > 100 µM
TGI [4]: > 100 µM
TGI [5]: > 100 µM
TGI [6]: > 100 µM
TGI [7]: > 100 µM
TGI [8]: > 100 µM
TGI [9]: > 100 µM
TGI [10]: > 100 µM

C[C@]12CC[C@@H]3c4cc(O)c(O)cc4CC[C@H]3[C@@H]1CC[C@@H]2O
GI50 [1]: 10.5 µM
TGI [1]: > 100 µM
GI50 [2]: 26.8 µM
TGI [2]: > 100 µM
GI50 [3]: 5.97 µM
TGI [3]: 23.6 µM
GI50 [4]: 5.68 µM
TGI [4]: 77.8 µM
GI50 [5]: 3.99 µM
TGI [5]: 30.3 µM
GI50 [6]: 11.2 µM
TGI [6]: 41.8 µM
GI50 [7]: 1.64 µM
TGI [7]: 5.45 µM
GI50 [8]: 24.8 µM
TGI [8]: > 74.9 µM
GI50 [9]: 27.2 µM
TGI [9]: 61.3 µM
GI50 [10]: 1.55 µM
TGI [10]: 8.32 µM
